# According to PMC6286365 (Scientific Reports, 2018):
# Entries after “also recorded” stand apart in the source; their conditions may differ.
# Tests used:
# alkaline phosphatase = test: Counter assay without nSMase2 and SM, phosphorylcholine as substrate (enzyme-coupled detection reactions); assay type: biochemical; settings: no nSMase2, no SM; phosphorylcholine 2 μM as substrate
# [1] = Metabolic stability in human liver microsomes with NADPH; assay type: in vitro ADME; settings: pH 7.4, 1 μM compound, read-out: percent remaining
# Description: One potential liability when using chemical probes in vivo is lack of metabolic stability which structurally inactivates the compound before it can reach its molecular target. […] Percent of drug remaining over time was determined by liquid chromatography–tandem mass spectrometry analysis (LC/MS/MS).
# Metabolic stability assay was conducted in mouse or human liver microsomes as we have described previously with minor modifications. Briefly, the reaction was carried out using potassium phosphate buffer (100 mM, pH 7.4), in the presence of an NADPH regenerating system (compound final concentration was 1 μM; 0.2 mg/mL microsomes). Compound disappearance was monitored over time using a liquid chromatography and tandem mass spectrometry (LC/MS/MS) method. Chromatographic analysis was performed using an Accela ultra high-performance system consisting of an analytical pump and an autosampler coupled with a TSQ Vantage mass spectrometer (Thermo Fisher Scientific Inc., Waltham, MA). […] The mobile phase consisted of 0.1% formic acid in acetonitrile and 0.1% formic acid in water with gradient elution.
# primary astrocytes = test: Inhibition of EV release from primary astrocytes (FBS withdrawal, nanoparticle tracking); assay type: cell-based, rat; settings: 2 h treatment, dose range of concentrations
# Description: Independent laboratories have shown that pharmacological and genetic inhibition of nSMase2 blocks EV secretion from glial cells. […] Two hours after treatment, EVs were isolated from the media and quantified by nanoparticle tracking analysis. […] Cells were fixed and immunofluorescence labeling for GFAP was performed.
# Media was collected after 2 h incubation and centrifuged at 2700 × g for 15 min at 4 °C. Supernatant was collected and the number of extracellular vesicles (EVs) was quantified using ZetaView Nanoparticle Tracker. The mean concentration of EVs/mL (±SEM) was calculated from 4 replicate experiments. […] Astrocytes grown in complete medium were used as no treatment control. Cells were fixed and stained with anti-GFAP antibody (1:500, Sigma). Fluorescence intensity was measured using Image J. (C) Quantitation of fluorescence in (B). Bar graph represents background corrected mean fluorescence intensity measured from 100 astrocytes per condition. Error bars represent standard error of mean. One-way ANOVA followed by Tukey’s posthoc test was performed.
# Potential inhibition of test compounds on EV release from primary astrocytes was carried out as previously described (Dickens et al., 2017). Briefly, rat primary astrocytes were seeded onto 6-well plates at a density of 20,000 cells/well. Twenty-four hours after seeding, astrocytes were washed with PBS and the medium changed to media without FBS. Absence of FBS mimics a trophic factor withdrawal stimulus causing EVs to be released from astrocytes via an nSMase2-dependent pathway. […] The supernatant was collected and the number of EVs quantified using ZetaView Nanoparticle Tracker (Particle Metrix GmBH, Meerbusch, Germany) and the corresponding ZetaVeiw software (8.03.04.01). Nanosphere size standard 100 nm (Thermo Scientific) was used to calibrate the instrument prior to sample readings. […] For each sample 1 mL of the supernatant was injected into the sample-carrier cell and the particle count measured at 5 positions, with 2 cycles of reading per position. […] Mean concentration of EVs/mL (±SEM) was calculated from 4 replicates.
# human nSMase2 = molecular target: T1, human nSMase2 (Homo sapiens, UniProt Q9NY59); test: Mode of inhibition: rate vs SM concentration at several DPTIP concentrations (Michaelis-Menten fits); assay type: biochemical; design: Full length human nSMase2 cDNA with a C-terminal Flag tag; host or cells: HEK293 cells, G418-selected; crude sonicated cell lysate used as the enzyme preparation; settings: with respect to SM
# T1 sequence (Q9NY59 1-655): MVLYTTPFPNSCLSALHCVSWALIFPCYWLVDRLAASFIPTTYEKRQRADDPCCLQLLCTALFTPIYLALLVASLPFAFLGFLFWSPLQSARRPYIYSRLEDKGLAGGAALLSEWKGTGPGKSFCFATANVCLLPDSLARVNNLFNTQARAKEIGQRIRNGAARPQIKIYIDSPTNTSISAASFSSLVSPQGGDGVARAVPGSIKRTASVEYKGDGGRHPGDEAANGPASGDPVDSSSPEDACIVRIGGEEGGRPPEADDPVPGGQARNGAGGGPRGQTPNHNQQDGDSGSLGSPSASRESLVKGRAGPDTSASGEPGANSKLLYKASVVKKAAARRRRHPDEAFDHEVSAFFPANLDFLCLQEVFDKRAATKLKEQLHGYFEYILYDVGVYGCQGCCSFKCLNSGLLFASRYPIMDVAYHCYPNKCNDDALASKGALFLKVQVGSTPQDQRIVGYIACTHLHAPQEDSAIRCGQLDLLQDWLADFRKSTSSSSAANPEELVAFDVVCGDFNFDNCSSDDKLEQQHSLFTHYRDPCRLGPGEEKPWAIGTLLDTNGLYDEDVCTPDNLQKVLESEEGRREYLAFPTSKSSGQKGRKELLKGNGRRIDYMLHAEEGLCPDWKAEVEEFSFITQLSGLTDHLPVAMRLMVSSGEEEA
structure (smiles),measurement,setting,value
"COc1cc(-c2nc(-c3cccs3)c(-c3ccccc3)[nH]2)cc(OC)c1O [DPTIP, 2,6-Dimethoxy-4-(5-Phenyl-4-Thiophen-2-yl-1H-Imidazol-2-yl)-Phenol]",IC50,alkaline phosphatase,> 100 µM
same,"remaining at 1 h, 1 μM",[1],100%
same,effect on EV release from primary astrocytes,primary astrocytes,dose-dependently inhibited EV release; also recorded: inhibited EV release from astrocytes in a dose dependent manner
same,mode of inhibition,human nSMase2,noncompetitive
